Data taken from patent EP0554284B1, “PEPTIDE-BASED INHIBITORS OF HIV REPLICATION” (priority 1990, dated 1996).

How the values were obtained:
tat = conditions: literature, Green et al; cited from earlier work
[1] = system: truncated functional form of TAR RNA; assay: RNA gel mobility shift assay, TAR binding; parameters: species or system HIV; conditions: judged relative to tat(1-86) and the oligopeptide representing the tat basic domain; result in words
Experimental: This assay generally involves the incubation of a selected oligopeptide with gel-purified, radio-labelled TAR RNA, or tat-binding fragment of TAR RNA, that has been produced either by direct synthesis or through transcription of a corresponding DNA template. Samples are loaded onto non-denaturing polyacrylamide gel and subjected to electrophoresis, and then migration of labelled RNA through the gel is visualized on gel-exposed, X-ray film. Oligopeptides which bind TAR are identified in this assay by their characteristic, retarded migration on the gel, relative to TAR RNA to which no oligopeptide has bound. In this mobility shift assay, oligopeptides having an "enhanced" affinity for binding TAR RNA will resolve on the gel as bands which, in addition to displaying the retarded migration pattern characteristic of TAR-binding oligopeptides, will also appear with greater intensity and/or size than a band containing TAR RNA bound to tat (1-86).
(§1) TAR-binding affinity of the oligopeptides relative to HIV tat(1-86) and relative to tat fragments representing the tat basic domain, was evaluated by RNA gel mobility shift assay using as ligand a truncated functional form of TAR RNA having the sequence shown below.
Synthesis of the TAR fragment and its variant analogue was accomplished as described by Roy et al. in Genes and Development, 1990, 4:1365. […]

[2] = system: variant of TAR which does not bind tat; assay: RNA gel mobility shift assay, binding to non-functional TAR variant (specificity); parameters: species or system HIV; conditions: relative to binding to the non-functional TAR variant; result in words
Experimental: as §1
Synthesis of the TAR fragment and its variant analogue was accomplished as described by Roy et al. in Genes and Development, 1990, 4:1365. The TAR-binding assay was also performed in the manner reported by Roy et al., supra, which is incorporated herein by reference.

yeast tRNA = assay: TAR binding compared with yeast tRNA binding (specificity); conditions: result in words
HIV (strain NL4-3) = type: cell-based
From the text: Controls used water in place of peptide.

Arg-Lys-Lys-Arg-Arg-Gln-Arg-Arg-Arg
tat antagonist activity (tat): Weak tat antagonist activity

CC(=O)N[C@H](CCCNC(=N)N)C(=O)N[C@H](CCCNC(=N)N)C(=O)N[C@H](CCCNC(=N)N)C(=O)N[C@H](CCCNC(=N)N)C(=O)N[C@H](CCCNC(=N)N)C(=O)N[C@H](CCCNC(=N)N)C(=O)N[C@H](CCCNC(=N)N)C(=O)N[C@H](CCCNC(=N)N)C(=O)N[C@H](CCCNC(=N)N)C(N)=O [peptide 4C, acetyl-[D-Arg]9-NH2]
TAR-binding affinity [1]: comparable to the basic domain of wild type tat
specificity for binding to the functional TAR fragment [2]: comparable to the wild type basic domain
specificity of binding (yeast tRNA): confirmed
inhibition of viral replication, as measured by p24 assay (HIV (strain NL4-3); HuT78 cells pretreated with 5µM peptide for 7 or 14 days, 10µM after infection, p24 at four and seven days after infection): ≥ 95%
formation of syncytia (HIV (strain NL4-3); visual inspection of infected HuT78 cells, same treatment as p24 assay): completely inhibited

CC(=O)N[C@H](CCCNC(=N)N)C(=O)N[C@H](CCCCN)C(=O)N[C@H](CCCCN)C(=O)N[C@H](CCCNC(=N)N)C(=O)N[C@H](CCCNC(=N)N)C(=O)N[C@H](CCC(N)=O)C(=O)N[C@H](CCCNC(=N)N)C(=O)N[C@H](CCCNC(=N)N)C(=O)N[C@H](CCCNC(=N)N)C(N)=O [peptide 4G]
effects on HIV inhibition (HIV (strain NL4-3); 5µM pretreatment of HuT78 cells, 7 or 14 days, result in words): positive effects on HIV inhibition
